Laboratory results published in PubChem BioAssay (NCI).
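Following 48 hours of exposure in 96-well plates, responses at five concentrations were used to interpolate endpoints linearly. TGI: total growth inhibition.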

Experiments:
Test in all cases: DTP human tumour cell line panel, 48 h
UACC-62 melanoma = test system: UACC-62 melanoma
K-562 leukemia = test system: K-562 leukemia
OVCAR-3 ovarian = test system: OVCAR-3 ovarian
HT29 colon = test system: HT29 colon
DU-145 prostate = test system: DU-145 prostate
NCI-H23 lung = test system: NCI-H23 lung
MCF7 breast = test system: MCF7 breast
RPMI-8226 leukemia = test system: RPMI-8226 leukemia
RXF 393 renal = test system: RXF 393 renal
BT-549 breast = test system: BT-549 breast
A549 NSCLC = test system: A549 NSCLC
SK-OV-3 ovarian = test system: SK-OV-3 ovarian
MDA-MB-231 breast = test system: MDA-MB-231 breast
NCI-H226 lung = test system: NCI-H226 lung
COLO 205 colon = test system: COLO 205 colon
NCI-H522 lung = test system: NCI-H522 lung
LOX IMVI melanoma = test system: LOX IMVI melanoma
SF-295 CNS = test system: SF-295 CNS
OVCAR-8 ovarian = test system: OVCAR-8 ovarian
A498 renal = test system: A498 renal
T-47D breast = test system: T-47D breast
NCI-H460 lung = test system: NCI-H460 lung
OVCAR-4 ovarian = test system: OVCAR-4 ovarian
ACHN renal = test system: ACHN renal
HCT-116 colon = test system: HCT-116 colon
CCRF-CEM leukemia = test system: CCRF-CEM leukemia
TK-10 renal = test system: TK-10 renal
SF-539 CNS = test system: SF-539 CNS
SK-MEL-5 melanoma = test system: SK-MEL-5 melanoma
HCT-15 colon = test system: HCT-15 colon
UO-31 renal = test system: UO-31 renal
786-0 renal = test system: 786-0 renal
NCI/ADR-RES ovarian = test system: NCI/ADR-RES ovarian
SW-620 colon = test system: SW-620 colon
EKVX NSCLC = test system: EKVX NSCLC
MOLT-4 leukemia = test system: MOLT-4 leukemia
MDA-MB-435 = test system: MDA-MB-435
UACC-257 melanoma = test system: UACC-257 melanoma
M14 melanoma = test system: M14 melanoma
MDA-N = test system: MDA-N
KM12 colon = test system: KM12 colon
CAKI-1 renal = test system: CAKI-1 renal
OVCAR-5 ovarian = test system: OVCAR-5 ovarian
SR leukemia = test system: SR leukemia
SNB-75 CNS = test system: SNB-75 CNS
U251 CNS = test system: U251 CNS
SK-MEL-28 melanoma = test system: SK-MEL-28 melanoma
SNB-19 CNS = test system: SNB-19 CNS
HOP-62 NSCLC = test system: HOP-62 NSCLC
HCC-2998 colon = test system: HCC-2998 colon
SF-268 CNS = test system: SF-268 CNS
IGROV1 ovarian = test system: IGROV1 ovarian
SK-MEL-2 melanoma = test system: SK-MEL-2 melanoma
HS 578T breast = test system: HS 578T breast
SN12C renal = test system: SN12C renal
HL-60(TB) leukemia = test system: HL-60(TB) leukemia
HOP-92 NSCLC = test system: HOP-92 NSCLC
PC-3 prostate = test system: PC-3 prostate

Measured: TGI

CCOC(=O)C12CCC(=O)N1N(C)c1ncccc1N2 (configuration not stated)
not listed: SK-MEL-2 melanoma | HS 578T breast | SN12C renal | HL-60(TB) leukemia | HOP-92 NSCLC | PC-3 prostate
> 100 µM: all other assays above

Cc1nc(OCc2ccccc2)c2ncn(CCO)c2n1
not listed: K-562 leukemia | OVCAR-8 ovarian | T-47D breast | HCT-15 colon | EKVX NSCLC | SNB-75 CNS | HOP-62 NSCLC | HCC-2998 colon
> 100 µM: all other assays above
